Results: patent publication US20250177547A1, “PSMA-STEAP1 DUAL VARIABLE DOMAIN IMMUNOGLOBLIN (DVD-Ig) MOLECULES AND DRUG CONJUGATES” (AbbVie Inc., priority 2023, published 2025)
Values joined by “and” are separate entries in the source; they are usually repeats but may differ in a detail not shown here. Identical values can stand only once.

Assays:
LNCaP.FGC cells = test: In vitro cytotoxicity of MMAE conjugates (CellTiter-Glo), LNCaP.FGC; settings: read-out: LNCaP.FGC IC50, 7 days
HEK293-PSMA cells = test: In vitro cytotoxicity of MMAE conjugates (CellTiter-Glo), HEK293-PSMA; settings: read-out: HEK293-PSMA IC50, 7 days, CellTiter-Glo

Substance: PSMA
- IC50 (LNCaP.FGC cells): 0.15 nM and 0.1 nM
- IC50 (HEK293-PSMA cells): 0.07 nM and 0.06 nM
